# Biological target: T1, hCRTH2 (Homo sapiens, UniProt Q9Y5Y4)
# T1 construct: expressed in transfected cells; host or cells: HEK (human embryonic kidney) cells expressing hCRTH2
# T1 sequence (Q9Y5Y4 1-395): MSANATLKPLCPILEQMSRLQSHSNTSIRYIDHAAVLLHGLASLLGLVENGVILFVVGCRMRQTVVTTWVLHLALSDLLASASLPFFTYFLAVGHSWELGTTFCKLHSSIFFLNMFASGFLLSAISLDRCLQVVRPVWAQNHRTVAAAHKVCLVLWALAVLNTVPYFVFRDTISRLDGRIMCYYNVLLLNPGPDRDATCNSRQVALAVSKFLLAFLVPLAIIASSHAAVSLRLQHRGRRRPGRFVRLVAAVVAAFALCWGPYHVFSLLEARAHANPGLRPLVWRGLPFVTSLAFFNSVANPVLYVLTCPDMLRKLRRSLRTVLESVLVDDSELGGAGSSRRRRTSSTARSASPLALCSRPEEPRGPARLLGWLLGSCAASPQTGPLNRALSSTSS
# Assay: Radioligand Binding Assay B (scintillation proximity assay, [3H]-PGD2, HEK-hCRTH2 membranes)
# Conditions: Radioligand Binding Assay B (SPA), values in text
# Method: Radioligand binding also was performed using scintillation proximity assay (SPA) technology in a similar way as described above in Radioligand Binding Assay A with minor modification. Assays were done at room temperature in 10 mM HEPES pH 7.4, 1 mM EDTA containing 2 mM MnCl2 and 16 nM [^3H]-PGD2 (PerkinElmer, Waltham, Mass.) (164 Ci mmol^−1), in a final volume of 0.05 mL. Competing ligands were diluted in dimethylsulfoxide (Me2SO) and added using very low volumes (50 nL). The reaction was initiated by the addition of a mixture of 3.52 μg of membrane protein prepared from a human embryonic kidney (HEK)-hCRTH2 cell line adhered to 140 ug of wheatgerm agglutinin SPA beads (PerkinElmer). Total and non-specific binding were determined in the absence and the presence of 10 μM of a CRTH2 antagonist, respectively. The reaction was routinely conducted for 60 min at room temperature followed by centrifugation for 5 minutes at 1000 RPM. The radioactivity was measured with a TopCountNXT (PerkinElmer). Results determined using the SPA-based assay were similar to those from the filtration binding assay.
row,Ki,SMILES
1,0.0072 µM,"Cc1ccccc1N1CCN(C(=O)c2ccc3nc(-c4ccc(F)cc4)c(CCCCC(=O)O)cc3c2)CC1 [Compound 5AT, 5-(2-(4-fluorophenyl)-6-(4-(o-tolyl)piperazine-1-carbonyl)quinolin-3-yl)pentanoic acid]"
2,0.0273 µM,"CC1(C)CC(NC(=O)c2ccc3nc(-c4ccc(Cl)cc4)c(CCCCC(=O)O)cc3c2)c2ccccc2O1 (stereo not shown) [Compound 5BH, 5-(2-(4-chlorophenyl)-6-((2,2-dimethylchroman-4-yl)carbamoyl)quinolin-3-yl)pentanoic acid]"
3,0.0074 µM,"Cc1cccc(N2CCN(C(=O)c3ccc4nc(-c5ccc(Cl)cc5)c(CCCCC(=O)O)cc4c3)CC2)c1 [Compound 5BR, 5-(2-(4-chlorophenyl)-6-(4-(m-tolyl)piperazine-1-carbonyl)quinolin-3-yl)pentanoic acid]"

# Same assay, conditions: Table B, Radioligand Binding Assay B (SPA), rated A-D
row,Ki,SMILES
1,0.0201 to 0.2 µM,"O=C(O)CCCCc1cc2cc(C(=O)NCc3ccccc3)ccc2nc1-c1ccc(F)cc1 [Compound 5AN, 5-(6-(benzylcarbamoyl)-2-(4-fluorophenyl)quinolin-3-yl)pentanoic acid]"
2,0.0021 to 0.02 µM,"COc1ccccc1C1CCN(C(=O)c2ccc3nc(-c4ccc(F)cc4)c(CCCCC(=O)O)cc3c2)CC1 [Compound 5AP, 5-(2-(4-fluorophenyl)-6-(4-(2-methoxyphenyl)piperidine-1-carbonyl)quinolin-3-yl)pentanoic acid]"
3,0.0021 to 0.02 µM,"O=C(O)CCCCc1cc2cc(C(=O)N3CCC4(CC3)OCc3ccccc34)ccc2nc1-c1ccc(F)cc1 [Compound 5AQ, 5-(2-(4-fluorophenyl)-6-(3H-spiro[isobenzofuran-1,4′-piperidin]-1′-ylcarbonyl)quinolin-3-yl)pentanoic acid]"
4,0.0021 to 0.02 µM,"O=C(O)CCCCc1cc2cc(C(=O)N3CCN(c4ccccc4C(F)(F)F)CC3)ccc2nc1-c1ccc(F)cc1 [Compound 5AR, 5-(2-(4-fluorophenyl)-6-(4-(2-(trifluoromethyl)phenyl)piperazine-1-carbonyl)quinolin-3-yl)pentanoic acid]"
5,0.0021 to 0.02 µM,"O=C(O)CCCCc1cc2cc(C(=O)N3CCN(c4ccccc4Cl)CC3)ccc2nc1-c1ccc(F)cc1 [Compound 5AS, 5-(6-(4-(2-chlorophenyl)piperazine-1-carbonyl)-2-(4-fluorophenyl)quinolin-3-yl)pentanoic acid]"
6,0.0021 to 0.02 µM,"Cc1ccccc1N1CCN(C(=O)c2ccc3nc(-c4ccc(F)cc4)c(CCCCC(=O)O)cc3c2)CC1 [Compound 5AT, 5-(2-(4-fluorophenyl)-6-(4-(o-tolyl)piperazine-1-carbonyl)quinolin-3-yl)pentanoic acid]"
7,0.0021 to 0.02 µM,"Cc1cccc(N2CCN(C(=O)c3ccc4nc(-c5ccc(F)cc5)c(CCCCC(=O)O)cc4c3)CC2)c1 [Compound 5AU, 5-(2-(4-fluorophenyl)-6-(4-(m-tolyl)piperazine-1-carbonyl)quinolin-3-yl)pentanoic acid]"
8,0.0021 to 0.02 µM,"COc1ccc(N2CCN(C(=O)c3ccc4nc(-c5ccc(F)cc5)c(CCCCC(=O)O)cc4c3)CC2)cc1 [Compound 5AV, 5-(2-(4-fluorophenyl)-6-(4-(4-methoxyphenyl)piperazine-1-carbonyl)quinolin-3-yl)pentanoic acid]"
9,0.0021 to 0.02 µM,"Cc1ccc(N2CCN(C(=O)c3ccc4nc(-c5ccc(F)cc5)c(CCCCC(=O)O)cc4c3)CC2)cc1 [Compound 5AW, 5-(2-(4-fluorophenyl)-6-(4-(p-tolyl)piperazine-1-carbonyl)quinolin-3-yl)pentanoic acid]"
10,0.0021 to 0.02 µM,"O=C(O)CCCCc1cc2cc(C(=O)N3CCN(c4ccc(F)cc4)CC3)ccc2nc1-c1ccc(F)cc1 [Compound 5AX, 5-(2-(4-fluorophenyl)-6-(4-(4-fluorophenyl)piperazine-1-carbonyl)quinolin-3-yl)pentanoic acid]"
11,0.0021 to 0.02 µM,"O=C(O)CCCCc1cc2cc(C(=O)N[C@@H]3CCCc4cc(F)ccc43)ccc2nc1-c1ccc(Cl)cc1 [Compound 5AY, (R)-5-(2-(4-chlorophenyl)-6-((6-fluoro-1,2,3,4-tetrahydronaphthalen-1-yl)carbamoyl)quinolin-3-yl)pentanoic acid]"
12,0.0021 to 0.02 µM,"O=C(O)CCCCc1cc2cc(C(=O)N[C@@H]3CCCc4ccccc43)ccc2nc1-c1ccc(Cl)cc1 [Compound 5AZ, (R)-5-(2-(4-chlorophenyl)-6-((1,2,3,4-tetrahydronaphthalen-1-yl)carbamoyl)quinolin-3-yl)pentanoic acid]"
13,0.0021 to 0.02 µM,"CN(Cc1ccc(F)cc1)C(=O)c1ccc2nc(-c3ccc(F)cc3)c(CCCCC(=O)O)cc2c1 [Compound 5Ai, 5-(6-((4-fluorobenzyl)(methyl)carbamoyl)-2-(4-fluorophenyl)quinolin-3-yl)pentanoic acid]"
14,0.0021 to 0.02 µM,"N#Cc1ccccc1N1CCN(C(=O)c2ccc3nc(-c4ccc(F)cc4)c(CCCCC(=O)O)cc3c2)CC1 [Compound 5Ao, 5-(6-(4-(2-cyanophenyl)piperazine-1-carbonyl)-2-(4-fluorophenyl)quinolin-3-yl)pentanoic acid]"
15,0.0021 to 0.02 µM,"O=C(O)CCCCc1cc2cc(C(=O)N[C@@H]3CCOc4ccccc43)ccc2nc1-c1ccc(Cl)cc1 [Compound 5BA, (R)-5-(2-(4-chlorophenyl)-6-(chroman-4-ylcarbamoyl)quinolin-3-yl)pentanoic acid]"
16,0.0021 to 0.02 µM,"O=C(O)CCCCc1cc2cc(C(=O)N[C@@H]3COc4ccccc43)ccc2nc1-c1ccc(Cl)cc1 [Compound 5BB, (S)-5-(2-(4-chlorophenyl)-6-((2,3-dihydrobenzofuran-3-yl)carbamoyl)quinolin-3-yl)pentanoic acid]"

row,Ki,SMILES
1,0.0021 to 0.02 µM,"C[C@@H](NC(=O)c1ccc2nc(-c3ccc(Cl)cc3)c(CCCCC(=O)O)cc2c1)c1ccc(F)cc1 [Compound 5BC, (R)-5-(2-(4-chlorophenyl)-6-((1-(4-fluorophenyl)ethyl)carbamoyl)quinolin-3-yl)pentanoic acid]"
2,0.0021 to 0.02 µM,"O=C(O)CCCCc1cc2cc(C(=O)N3CCN(c4ccccc4)CC3)ccc2nc1-c1ccc(Cl)cc1 [Compound 5BD, 5-(2-(4-chlorophenyl)-6-(4-phenylpiperazine-1-carbonyl)quinolin-3-yl)pentanoic acid]"
3,0.0021 to 0.02 µM,"O=C(O)CCCCc1cc2cc(C(=O)N3CC(c4cccc(F)c4)C3)ccc2nc1-c1ccc(Cl)cc1 [Compound 5BE, 5-(2-(4-chlorophenyl)-6-(3-(3-fluorophenyl)azetidine-1-carbonyl)quinolin-3-yl)pentanoic acid]"
4,0.0021 to 0.02 µM,"O=C(O)CCCCc1cc2cc(C(=O)N3CC[C@@H](c4ccccc4)C3)ccc2nc1-c1ccc(Cl)cc1 [Compound 5BF, (S)-5-(2-(4-chlorophenyl)-6-(3-phenylpyrrolidine-1-carbonyl)quinolin-3-yl)pentanoic acid]"
5,0.0021 to 0.02 µM,"CN(Cc1ccc(F)cc1)C(=O)c1ccc2nc(-c3ccc(Cl)cc3)c(CCCCC(=O)O)cc2c1 [Compound 5BG, 5-(2-(4-chlorophenyl)-6-((4-fluorobenzyl)(methyl)carbamoyl)quinolin-3-yl)pentanoic acid]"
6,0.0201 to 0.2 µM,"CC1(C)CC(NC(=O)c2ccc3nc(-c4ccc(Cl)cc4)c(CCCCC(=O)O)cc3c2)c2ccccc2O1 (stereo not shown) [Compound 5BH, 5-(2-(4-chlorophenyl)-6-((2,2-dimethylchroman-4-yl)carbamoyl)quinolin-3-yl)pentanoic acid]"
7,0.0021 to 0.02 µM,"O=C(O)CCCCc1cc2cc(C(=O)NC3CC(=O)Nc4ccccc43)ccc2nc1-c1ccc(Cl)cc1 (stereo not shown) [Compound 5BJ, 5-(2-(4-chlorophenyl)-6-((2-oxo-1,2,3,4-tetrahydroquinolin-4-yl)carbamoyl)quinolin-3-yl)pentanoic acid]"
8,0.0021 to 0.02 µM,"O=C(O)CCCCc1cc2cc(C(=O)N3CC(c4ccccc4)C3)ccc2nc1-c1ccc(Cl)cc1 [Compound 5BK, 5-(2-(4-chlorophenyl)-6-(3-phenylazetidine-1-carbonyl)quinolin-3-yl)pentanoic acid]"
9,0.0021 to 0.02 µM,"O=C(O)CCCCc1cc2cc(C(=O)NCc3ccccc3)ccc2nc1-c1ccc(Cl)cc1 [Compound 5BL, 5-(6-(benzylcarbamoyl)-2-(4-chlorophenyl)quinolin-3-yl)pentanoic acid]"
10,0.0021 to 0.02 µM,"N#Cc1ccccc1N1CCN(C(=O)c2ccc3nc(-c4ccc(Cl)cc4)c(CCCCC(=O)O)cc3c2)CC1 [Compound 5BM, 5-(2-(4-chlorophenyl)-6-(4-(2-cyanophenyl)piperazine-1-carbonyl)quinolin-3-yl)pentanoic acid]"
11,0.0021 to 0.02 µM,"COc1ccccc1C1CCN(C(=O)c2ccc3nc(-c4ccc(Cl)cc4)c(CCCCC(=O)O)cc3c2)CC1 [Compound 5BN, 5-(2-(4-chlorophenyl)-6-(4-(2-methoxyphenyl)piperidine-1-carbonyl)quinolin-3-yl)pentanoic acid]"
12,0.0201 to 0.2 µM,"O=C(O)CCCCc1cc2cc(C(=O)N3CCN(c4ccccc4Cl)CC3)ccc2nc1-c1ccc(Cl)cc1 [Compound 5BP, 5-(2-(4-chlorophenyl)-6-(4-(2-chlorophenyl)piperazine-1-carbonyl)quinolin-3-yl)pentanoic acid]"
13,0.0021 to 0.02 µM,"Cc1ccccc1N1CCN(C(=O)c2ccc3nc(-c4ccc(Cl)cc4)c(CCCCC(=O)O)cc3c2)CC1 [Compound 5BQ, 5-(2-(4-chlorophenyl)-6-(4-(o-tolyl)piperazine-1-carbonyl)quinolin-3-yl)pentanoic acid]"
14,0.0021 to 0.02 µM,"Cc1cccc(N2CCN(C(=O)c3ccc4nc(-c5ccc(Cl)cc5)c(CCCCC(=O)O)cc4c3)CC2)c1 [Compound 5BR, 5-(2-(4-chlorophenyl)-6-(4-(m-tolyl)piperazine-1-carbonyl)quinolin-3-yl)pentanoic acid]"
15,0.0021 to 0.02 µM,"COc1ccc(N2CCN(C(=O)c3ccc4nc(-c5ccc(Cl)cc5)c(CCCCC(=O)O)cc4c3)CC2)cc1 [Compound 5BS, 5-(2-(4-chlorophenyl)-6-(4-(4-methoxyphenyl)piperazine-1-carbonyl)quinolin-3-yl)pentanoic acid]"
